The target in one assay is T1, rat A1 (rA1) ARs (Rattus norvegicus, UniProt P25099).
T1 construct: using rat brain cortical membrane preparations for A1; tissue Pel Freez; host or cells: rat brain cortex membranes
T1 sequence (P25099 1-326): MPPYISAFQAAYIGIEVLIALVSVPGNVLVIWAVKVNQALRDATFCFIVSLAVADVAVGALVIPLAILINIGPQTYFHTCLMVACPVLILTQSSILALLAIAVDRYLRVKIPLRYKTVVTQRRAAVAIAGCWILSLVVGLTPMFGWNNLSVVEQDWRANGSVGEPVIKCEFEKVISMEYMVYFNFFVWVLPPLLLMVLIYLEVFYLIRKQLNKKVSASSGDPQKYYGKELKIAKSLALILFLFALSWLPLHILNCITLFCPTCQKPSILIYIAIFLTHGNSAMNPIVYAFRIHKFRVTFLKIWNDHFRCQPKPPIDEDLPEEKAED
Put plainly: Radioligand binding [3H]CCPA, rat brain cortical membranes. Conditions: read-out: rA1 [3H]CCPA Ki ± SEM. Here is the method: The final compounds were tested in radioligand binding assays to evaluate their affinity for all four ARs subtypes (see Table 2). Rat brain cortical membrane preparations were used as a source of rat A1 (rA1) ARs, and rat brain striatal membrane preparations served as a source of rat A2A (rA2A) ARs. For A2B- and A3AR assays, membrane preparations of Chinese hamster ovary (CHO) cells recombinantly expressing either human A2B (hA2B) or human A3 (hA3) ARs were employed.
Adenosine receptor radioligand binding assays were performed as previously described using rat brain cortical membrane preparations for A1 and rat brain striatal membrane preparations for A2A AR assays. Frozen rat brains (unstripped) were obtained from Pel Freez, Rogers, AR, USA. For assays at human AR subtypes, cell membranes of CHO cells recombinantly expressing the respective receptor were used. The following compounds were employed as radioligands: A1: [^3H]2-chloro-N^6-cyclopentyladenosine ([^3H]CCPA); A2A: [^3H]3-(3-hydroxypropyl)-7-methyl-8-(m-methoxystyryl)-1-propargylxanthine ([^3H]MSX-2); A2B: [^3H]8-(4-(4-(4-chlorophenyl)piperazine-1-sulfonyl)phenyl)-1-propylxanthine ([^3H]PSB-603); A3: [^3H]phenyl-8-ethyl-4-methyl-(8R)-4,5,7,8-tetrahydro-1H-imidazo[2,1-i]purine-5-one ([^3H]PSB-11). Initially, a single high concentration of compound was tested (1 µM). For potent compounds, full concentration–inhibition curves were determined using six to ten different concentrations of test compound spanning three orders of magnitude. At least three independent experiments were performed. Data were analyzed using GraphPad PRISM program version 4.0 or higher (Graph Pad, San Diego, CA, USA).

A further assay deals with T2, rat D1 receptor (Rattus norvegicus, UniProt P18901).
T2 construct: source of native rat D1 receptor protein; from tissue; host or cells: rat striatum (methods) / rat brain cortical membranes
T2 sequence (P18901 whole entry): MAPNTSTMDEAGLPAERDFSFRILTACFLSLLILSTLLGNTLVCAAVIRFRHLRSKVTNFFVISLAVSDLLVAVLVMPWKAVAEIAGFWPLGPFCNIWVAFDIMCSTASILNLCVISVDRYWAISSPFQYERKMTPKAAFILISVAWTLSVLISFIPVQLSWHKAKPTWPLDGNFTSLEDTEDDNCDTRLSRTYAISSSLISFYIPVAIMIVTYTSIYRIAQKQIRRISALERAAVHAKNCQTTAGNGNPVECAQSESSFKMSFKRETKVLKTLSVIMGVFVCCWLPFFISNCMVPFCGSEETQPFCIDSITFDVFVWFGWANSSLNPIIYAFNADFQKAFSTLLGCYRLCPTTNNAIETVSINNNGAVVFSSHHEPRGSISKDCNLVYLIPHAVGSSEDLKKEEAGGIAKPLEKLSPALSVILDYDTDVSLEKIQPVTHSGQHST
Put plainly: Radioligand binding [3H]SCH23390, rat brain tissue. Conditions: for Ki: native rat D1 receptor, read-out: rD1 [3H]SCH23390 Ki ± SEM; for inhibition at 1 µM: read-out: rD1 [3H]SCH23390 % inhibition ± SEM at 1 µM. The protocol:
Rat brain cortical membranes were used as source of native rat D1 receptor protein, and human D2 receptor was recombinantly expressed in HEK293 cells.
Rat striatum tissue was thawed in 50 volumes of ice-cold 50 mM potassium phosphate buffer, pH 7.4, homogenized and centrifuged at 20,000× g for 20 min. The resulting pellet was resuspended in the same quantity of the buffer and centrifuged again for 20 min. Binding experiments were conducted in 96-well microplates in a total volume of 250 μL of appropriate buffers. Reaction mix included 50 μL solution of test compound, 50 μL of radioligand, and 150 μL of tissue suspension (3 mg/mL). [^3H]SCH23390 (spec. act. 81.9 Ci/mmol, PerkinElmer, NET 930) was used for labeling the D1-receptor. For measuring unspecific binding, cis(Z)flupentixol—5 μM was applied. Samples were incubated at 30 °C for 60 min. The incubation was terminated by rapid filtration over glass fiber filters GF/B using a Harvester (PerkinElmer, USA). The radioactivity was measured in MicroBeta TriLux 1450—liquid scintillation counter (PerkinElmer). Each compound was tested in a screening assay in duplicate at final concentrations of 1 µM. Results were expressed as a percent of inhibition of specific binding.

The next assay has as its target T3, human PDE4B1 (Homo sapiens, UniProt Q07343).
T3 construct: purchased BPS Biosciences
Put plainly: PDElight HTS cAMP phosphodiesterase assay, PDE4B1. The format is biochemical. The settings on record: for IC50: read-out: PDE 4B1 IC50 ± SEM. The protocol: Further biological evaluation of the presented compound library was performed determining inhibitory potencies against selected human PDE isoforms, namely, PDE4 and PDE10 (for results see Table 3).
Tested and reference compounds were dissolved in dimethyl sulfoxide (DMSO) at a concentration of 10 mM and further diluted in assay buffer (10 mM Tris-HCl, 10 mM magnesium chloride and 0.05% Tween-20; pH 7.4). Inhibition of human PDE10A and 4B1 was measured using PDElight HTS cAMP phosphodiesterase assay kit (Lonza, Basel, Switzerland) according to manufacturer’s recommendations. Then, 10 ng of PDE10A and 5 ng of PDE4B1 (BPS Biosciences, San Diego, CA, USA) in appropriate buffer was incubated with reference and tested compound for 20 min. […] Then PDELight AMP Detection Reagent was added and incubated 10 min. All reactions were carried out at 37 °C in 96 white-walled, half-area-well plates (PerkinElmer). Luminescence was measured in a multifunction plate reader (POLARstar Omega, BMG Labtech, Ortenberg, Germany). The percentage of inhibition and IC50s were computed using GraphPad Prism Version 6.0 software.

Where only a bound is given, the exact number is not on record here.

T3 sequence (Q07343 whole entry): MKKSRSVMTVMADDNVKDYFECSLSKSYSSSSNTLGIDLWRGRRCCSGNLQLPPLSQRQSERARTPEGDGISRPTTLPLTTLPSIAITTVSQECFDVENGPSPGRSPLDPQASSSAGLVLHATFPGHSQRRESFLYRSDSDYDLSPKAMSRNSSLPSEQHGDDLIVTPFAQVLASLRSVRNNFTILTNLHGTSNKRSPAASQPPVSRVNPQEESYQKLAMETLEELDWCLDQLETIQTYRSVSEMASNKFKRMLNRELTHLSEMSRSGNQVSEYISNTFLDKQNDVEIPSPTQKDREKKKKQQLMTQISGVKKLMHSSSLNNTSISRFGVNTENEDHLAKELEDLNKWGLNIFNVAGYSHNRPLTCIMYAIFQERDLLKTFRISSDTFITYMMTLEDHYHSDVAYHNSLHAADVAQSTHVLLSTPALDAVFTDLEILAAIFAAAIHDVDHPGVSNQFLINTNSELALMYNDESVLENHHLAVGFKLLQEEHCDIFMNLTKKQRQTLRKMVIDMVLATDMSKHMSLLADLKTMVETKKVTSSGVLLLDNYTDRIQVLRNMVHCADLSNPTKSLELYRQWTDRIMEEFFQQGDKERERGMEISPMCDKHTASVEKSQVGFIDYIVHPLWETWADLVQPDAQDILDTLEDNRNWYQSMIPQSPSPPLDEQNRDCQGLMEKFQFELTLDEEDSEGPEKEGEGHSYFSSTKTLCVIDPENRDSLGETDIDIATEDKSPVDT

Turning to `CCCn1c(=O)c2c(nc3n2CCCN3CCc2ccc(O)c(O)c2)n(CCC)c1=O` [Compound 21, 9-(3,4-Dihydroxyphenethyl)-1,3-dipropyl-6,7,8,9-tetrahydropyrimido[2,1-f]purine-2,4(1H,3H)-dione], the results for the Ki at rat A1 (rA1) ARs and at rat D1 receptor were 70 ± 5 nM and > 1000 nM, respectively. Further, the inhibition at 1 µM at rat D1 receptor turned out to be 12%. The IC50 at human PDE4B1 is 16500 ± 320 nM.

For the molecule `CCCCn1c(=O)c2c(nc3n2CCCN3CCc2ccc(O)c(O)c2)n(CCCC)c1=O` [Compound 22, 1,3-Dibutyl-9-(3,4-dihydroxyphenethyl)-6,7,8,9-tetrahydropyrimido[2,1-f]purine-2,4(1H,3H)-dione], on rat A1 (rA1) ARs, the Ki came to 53 ± 8 nM. Also, at rat D1 receptor, the Ki is > 1000 nM and the inhibition at 1 µM was found to be 11%. Further, the inhibition at 10 µM on human PDE4B1 (read-out: PDE 4B1 % Inhibition ± SEM at 10 µM) is 24%. On human PDE4B1, the IC50 was > 10000 nM.

Values taken from publication PMC10377586 (Biomolecules, 2023).
